Results on one compound are retold here after ChEMBL document CHEMBL1142152, “Inhibition of anthrax protective antigen outside and inside the cell” (Antimicrob Agents Chemother, 2007).

What all share (type): functional, cell-based
The species entered for one assay is Mus musculus. Nature of the assay: Cell viability in mouse RAW264.7 cells by LeTx protection assay.
For a further assay, the system named is KDR. Description: Protection of SLT-VEGF induced toxicity in 293/KDR cells. The conditions noted are these: Homo sapiens.
Assay [1] relates to CHO. Nature of the assay: Inhibition of LFn-A1 uptake in CHO cells expressing TEM8 receptor at 100 uM. The conditions noted are these: Cricetulus griseus.
The test system of assay [2] is CHO. Description: Blockade of PA-induced toxicity in CHO cells expressing TEM8 assessed as cell viability at 5 uM after 48 hrs. Particulars: Cricetulus griseus.
Assay [3] has as its system CHO. Nature of the assay: Inhibition of LFn-Lip uptake in CHO cells expressing TEM8 receptor at 100 uM after 1 hrs. The conditions noted are these: Cricetulus griseus.
Assay [4] relates to CHO. Nature of the assay: Inhibition of PA-induced apoptosis in CHO cells expressing TEM8 receptor cells at 5 uM after 24 hrs. Particulars: Cricetulus griseus.

For orientation: IC50 means the concentration that inhibits the measured activity by half. Low readings indicate greater potency in that assay, high ones weaker potency in that assay.

The structures appear in SMILES notation. Active and inactive are the calls of the source. No cut-off for these calls is given here.

The compound `NCCCSC[C@H]1O[C@@H]2O[C@H]3[C@H](O)[C@@H](O[C@H]4[C@H](O)[C@@H](O)[C@@H](O[C@H]5[C@H](O)[C@@H](O)[C@@H](O[C@H]6[C@H](O)[C@@H](O)[C@@H](O[C@H]7[C@H](O)[C@@H](O)[C@@H](O[C@H]8[C@H](O)[C@@H](O)[C@@H](OC1[C@H](O)[C@H]2O)O[C@@H]8CSCCCN)O[C@@H]7CSCCCN)O[C@@H]6CSCCCN)O[C@@H]5CSCCCN)O[C@@H]4CSCCCN)[C@@H](O)O[C@@H]3CSCCCN` came in with an IC50 in the assay filed under Mus musculus of 7 µM. Further, the result in the assay with KDR and with CHO [3] was inactive. The result in the assay with CHO [1], with CHO [2] and with CHO [4] was Active.
